According to patent publication US12605397B2, “Deoxy-cytidine or uridine derivatives for use in cancer therapies” (HEMISPHERIAN AS, priority 2019, dated 2026):

Key:
U937 cells = experiment: Survival assay (MTT), U937; type: cell-based, human; conditions: Homo sapiens, U-937
Experimental: (§1) Cells were passed between 70 and 90% confluence.
(§2) Cells were incubated with the drugs for 72 hours.

HCT-116 cells = experiment: Survival assay (MTT), HCT-116; type: cell-based, human; conditions: Homo sapiens
Experimental: as §2

U3017 cells = experiment: Survival assay (MTT), U3017; type: cell-based, human; conditions: Homo sapiens, U3017, Glioma, Grade IV, 72 hours
Experimental: as §1, §2

A375 cells = experiment: Survival assay (MTT), A375; type: cell-based, human; conditions: Homo sapiens, A-375
Experimental: as §1, §2

DIPG007 cells = experiment: Survival assay (MTT), DIPG007; type: cell-based, human; conditions: Homo sapiens, DIPG007, Glioma, Grade IV, 72 hours
Experimental: as §1, §2

[1] = system: SF-188 grade IV glioma cells; experiment: Apoptosis flow cytometry (Annexin V / 7AAD); type: cell-based, human; conditions: SF-188 cells, 100 μM, 72 hours
Experimental: 100,000 cells were seeded in a 6-well plate and incubated with 100 μM of Temozolomide, 2′-Deoxy-5-hydroxymethylcytidine, 5-Formyl-2′-deoxycytidine or DMSO for 72 hours. Detection of apoptotic cells was assessed using Annexin V-7-amino-actinomycin D (7-AAD) Apoptotic Detection Kit (Nordic Biosite AS, Cat. Nr. 640922) according to manufacturer's protocol.
Fluorescence-activated cell sorting analysis was performed on LSR Fortessa (BD Biosciences) and data were analyzed on FlowJo software. All experiments were performed in triplicates.
It was therefore evaluated whether 5-formyl-2′deoxycytidine and 5-hydroxymethyl-2′-deoxycytidine were killing sensitive cells or causing them to be delayed in the cell cycle. SF-188 grade IV glioma cells were treated either with DMSO, temozolomide, 5-formyl-2′-deoxycytidine, or 5-hydroxymethyl-2′-deoxycytidine at the indicated concentration. […] A majority of SF-188 cells treated with 5-formyl-2′-deoxycytidine or 5-hydroxymethyl-2′-deoxycytidine were dead according to the flow cytometry profile (FIG. 2A).

MIA PaCa-2 cells = experiment: Survival assay (MTT), MIA PaCa-2; type: cell-based, human; conditions: Homo sapiens, MIA PaCa-2
Experimental: as §1, §2

U3013 cells = experiment: Survival assay (MTT), U3013; type: cell-based, human; conditions: Homo sapiens, U3013, Glioma, Grade IV, 72 hours
Experimental: as §1, §2

22Rv1 cells = experiment: Survival assay (MTT), 22Rv1; type: cell-based, human; conditions: Homo sapiens
Experimental: as §1, §2

HEK293FT cells = experiment: Survival assay (MTT), HEK293FT; type: cell-based; conditions: Homo sapiens
Experimental: as §1, §2
The present inventors further investigated the extent to which these compounds kill normal human cells; low cytotoxicity against normal human cells is advantageous property for anti-cancer agents. The cytotoxicity of these compounds in various normal human cell lines was therefore investigated (Table 3). Cells were grown and the survival assay was performed as described above (Materials and Methods).

A549 cells = experiment: Survival assay (MTT), A549; type: cell-based, human; conditions: Homo sapiens
Experimental: as §1, §2

HL-60 cells = experiment: Survival assay (MTT), HL-60; type: cell-based, human; conditions: Homo sapiens
Experimental: as §1, §2

NCI-N87 cells = experiment: Survival assay (MTT), NCI-N87; type: cell-based, human; conditions: Homo sapiens
Experimental: as §1, §2

HeLa cells = experiment: Survival assay (MTT), HeLa; conditions: for IC50: Homo sapiens, HeLa; for cytotoxicity to HeLa cells (cell survival): three days of treatment, MTT, up to 100 μM
Experimental: (§4) Cell lines not mentioned above were grown in DMEM (Sigma, Cat.Nr. D6429) supplemented with 10% Fetal Bovine Serum and 100 U/ml penicillin 100 U/ml streptomycin. All cells were maintained in a 5% CO2, humidified, water-jacketed incubator at 37° C. Cells were passed between 70 and 90% confluence.
(§5) In a 96-well plate, 4000 cells in 100 μl of corresponding medium were seeded. The following day, drugs, diluted in DMSO, were added in 8 concentrations in triplicate. Drugs were added as a 4-fold dilution series starting from 100 μM. Cells were incubated with the drugs for 72 hours. Cell proliferation was assessed by MTT assay according to the manufacturer's protocol (ATCC, Cat. Nr. 30-1010K). Cell survival was normalized to the survival of cells treated with DMSO only. Experiment was performed three times, data represent mean of nine wells±SEM.
HeLa cells, grown as described above (Materials and Methods), were treated with 5-hydroxymethyl-2′-deoxycytidine and 5-formyl-2′-deoxycytidine. After three days of treatment with these compounds, cell survival was assessed as described above (Materials and Methods).
After three days of treatment with these compounds at a concentration of 100, 25, 6.25, 1.56, 0.39, 0.1, 0.02, or 0.006 μM, cell survival was assessed by MTT assay as described above (Materials and Methods).

[2] = system: Glioma, Grade IV cell lines; experiment: Survival assay, panel of 12 patient derived Glioma, Grade IV cell lines; type: cell-based, human; conditions: of 12 cell lines of Table 2
Experimental: (§3) Primary glioma neural stem (GNS) cells (G7, G14, G144, G166) were cultured on poly-D-lysine (Merck Millipore, Cat. Nr. A-003-E) and laminin (R&D Systems, Cat.Nr. 3446-005-01) coated plates in neural stem cell medium (50% DMEM-F12 (Thermofisher, Cat. Nr. 21041025), 50% neurobasal medium (Thermofisher, Cat. Nr. 10888-022), N2 (Life Technologies, Cat. Nr. A-003-E) and B27 supplements (Life Technologies, Cat.Nr. 12587010), 1 mM sodium pyruvate (Life Technologies, Cat.Nr. 11360-039), 2 mM glutamax (Life Technologies, Cat. Nr. 35050038), 1 mM HEPES (Fisher Scientific, Cat. Nr. BP299-1), 0.1 mM β-mercaptoethanol (Life Technologies, Cat. Nr. 31350010), 1× nonessential amino acids (Life Technologies, Cat. Nr. 11140-035), 0.006% bovine serum albumin (Sigma, Cat. Nr. A8577-10ML), 4 μg/ml heparin (Sigma, Cat. Nr. H3149-25KU), 100 U/ml penicillin, 100 μg/ml streptomycin, 20 ng/ml hEGF (R&D Systems, Cat. Nr. 236-EG-200), 10 ng/ml bFGF (Peprotech, Cat. Nr. 100-18B).
as §1, §2
Due to lack of activity in previous assays, 5-carboxyl-2′-deoxycytidine was not included in this more rigorous analysis.

G166 cells = experiment: Survival assay (MTT), G166; type: cell-based, human; conditions: Homo sapiens, G166, Glioma, Grade IV, 72 hours
Experimental: as §3, §2

G144 cells = experiment: Survival assay (MTT), G144; type: cell-based, human; conditions: Homo sapiens, G144, Glioma, Grade IV, 72 hours
Experimental: as §3, §2

U2OS cells = experiment: Survival assay (MTT), U2OS; type: cell-based, human; conditions: Homo sapiens
Experimental: as §1, §2

U87-MG cells = experiment: Survival assay (MTT), U87-MG; conditions: for cytotoxicity to U87-MG cells (cell survival): up to 100 μM; for IC50: U87-MG; for rescue of cytotoxicity by the addition of thymidine: U87-MG cells; for cytotoxic effect in combination with Temozolomide: temozolomide resistant U87-MG cells
Experimental: as §4, §5
In a 96-well plate, 4000 cells in 100 μl of corresponding medium were seeded. The following day, drugs, diluted in DMSO, were added in triplicate at a concentration of 100, 25, 6.25, 1.56, 0.39, 0.1, 0.02, or 0.006 ┘M. Cells were incubated with the drugs for 72 hours. Cell proliferation was assessed by MTT assay according to the manufacturer's protocol (ATCC, Cat. Nr. 30-1010K). Cell survival was normalized to the survival of cells treated with DMSO only. Experiment was performed three times, data represent mean of nine wells±SEM.

[3] = U937, Tables 6 and 7, unit inferred
[4] = HCT-116, 72 h, HCT-116, Colon Carcinoma, 72 hours, MTT
[5] = HCT-116, HCT-116, Tables 6 and 7, unit inferred
[6] = A375, Malignant Melanoma, 72 hours, MTT
[7] = A375, Tables 6 and 7, unit inferred
[8] = MIA PaCa-, Pancreatic Carcinoma, 72 hours, MTT
[9] = 22Rv1, 22Rv1, Tables 6 and 7, unit inferred
[10] = 22Rv1, 72 h, 22Rv1, Prostate Carcinoma, 72 hours, MTT
[11] = HEK293, Tables 6 and 7, unit inferred
[12] = A549, 72 h, A549, Lung Carcinoma, 72 hours, MTT
[13] = A549, A549, Tables 6 and 7, unit inferred
[14] = HL-60, Acute Promyelocytic Leukemia, 72 hours, MTT
[15] = HL-60, Tables 6 and 7, unit inferred
[16] = NCI-N87, Gastric Carcinoma, 72 hours, MTT
[17] = NCI-N87, Tables 6 and 7, unit inferred
[18] = Bone Osteoscarcoma, 72 hours, MTT
[19] = 72 hours, MTT, listed as 5-hydroxymethyl-2′-deoxycytidine
[20] = Homo sapiens, U-87 MG, Tables 6 and 7, unit inferred
[21] = Homo sapiens, U-87 MG, 72 h, Glioma, Grade IV, MTT

Row | SMILES | IC50 (U937 cells; U937, Lymophoma, 72 hours, MTT) [µM] | IC50 (U937 cells; [3]) [µM] | IC50 (HCT-116 cells; [4]) [µM] | IC50 (HCT-116 cells; [5]) [µM] | IC50 (U3017 cells) [µM] | IC50 (A375 cells; [6]) [µM] | IC50 (DIPG007 cells) [µM] | dead cells by flow cytometry (Annexin V, 7AAD) [1] | IC50 (MIA PaCa-2 cells; [8]) [µM] | IC50 (U3013 cells) [µM] | IC50 (22Rv1 cells; [10]) [µM] | IC50 (HEK293FT cells; 72 h, Normal, Kidney, MTT) [µM] | IC50 (A549 cells; [12]) [µM] | IC50 (HL-60 cells; [14]) [µM] | IC50 (NCI-N87 cells; [16]) [µM] | IC50 (HeLa cells; 72 h) [µM] | number of Glioma, Grade IV cell lines killed [2] | IC50 (G166 cells) [µM] | IC50 (G144 cells) [µM] | IC50 (U2OS cells; [18]) [µM] | further results
1 | Nc1nc(=O)n([C@H]2C[C@H](O)[C@@H](CO)O2)cc1CO [2d5hmC, 5-hydroxymethyl-2′-deoxycytidine] | > 25 | ≥ 25 | > 25 | ≥ 25 | 14.1 | > 25 | > 100 | dead and not arrested at a cell cycle checkpoint | > 25 | > 100 | > 25 | > 25 | > 25 | > 25 | > 25 | > 25 | 6 of 12 | > 100 | > 100 | > 25 | IC50 (A375 cells; [7]): ≥ 25 µM; IC50 (MIA PaCa-2 cells; Tables 6 and 7, unit inferred): ≥ 25 µM; IC50 (22Rv1 cells; [9]): ≥ 25 µM; IC50 (HEK293FT cells; [11]): ≥ 25 µM; IC50 (A549 cells; [13]): ≥ 25 µM; IC50 (HL-60 cells; [15]): ≥ 25 µM; IC50 (NCI-N87 cells; [17]): ≥ 25 µM; IC50 (HeLa cells): ≥ 25 µM; cytotoxicity to HeLa cells (cell survival) (HeLa cells): did not differ from DMSO treated cells; IC50 (U2OS cells; Tables 6 and 7, unit inferred): ≥ 25 µM; cytotoxicity to U87-MG cells (cell survival) (U87-MG cells; [19]): cytotoxic; cytotoxicity to U87-MG cells (cell survival) (U87-MG cells; 72 hours, MTT, listed as d5hmC): markedly more cytotoxic; IC50 (U87-MG cells; [20]): 3.03 µM; rescue of cytotoxicity by the addition of thymidine (U87-MG cells; 72 hours, MTT): not rescued; IC50 (U87-MG cells; Glioma, Grade IV, 72 hours, MTT): > 0.334 µM; cytotoxic effect in combination with Temozolomide (U87-MG cells; [19]): synergistically; cytotoxic effect in combination with Temozolomide (U87-MG cells; 72 hours, MTT, listed as d5hmC): more effective
2 | Cn1nnc2c(C(N)=O)ncn2c1=O [Temozolomide, 4-methyl-5-oxo-2,3,4,6,8-pentazabicyclo[4.3.0]nona-2,7,9-triene-9-carboxamide, reference compound] | 13.1 | – | > 25 | – | > 100 | > 25 | > 100 | slight increase in the amount of dead cells | > 25 | > 100 | > 25 | > 25 | 1.02 | > 25 | > 25 | > 25 | 5 of 12 | > 100 | 14.7 | > 25 | IC50 (U87-MG cells; [21]): > 25 µM
3 | Nc1nc(=O)n([C@H]2C[C@H](O)[C@@H](CO)O2)cc1C=O [2d5fC, 5-formyl-2′-deoxycytidine] | 0.954 | 0.954 | > 25 | ≥ 25 | > 100 | 3.19 | > 100 | dead and not arrested at a cell cycle checkpoint | 1.14 | > 100 | > 25 | > 25 | > 25 | 6.26 | 0.806 | 0.76 | 5 of 12 | > 100 | > 100 | 8.69 | IC50 (A375 cells; [7]): 3.19 µM; IC50 (MIA PaCa-2 cells; Tables 6 and 7, unit inferred): 1.14 µM; IC50 (22Rv1 cells; [9]): ≥ 25 µM; IC50 (HEK293FT cells; [11]): ≥ 25 µM; IC50 (A549 cells; [13]): ≥ 25 µM; IC50 (HL-60 cells; [15]): 6.26 µM; IC50 (NCI-N87 cells; [17]): 0.806 µM; IC50 (HeLa cells): 0.76 µM; cytotoxicity to HeLa cells (cell survival) (HeLa cells): markedly greater cytotoxic effect; IC50 (U2OS cells; Tables 6 and 7, unit inferred): 8.69 µM; cytotoxicity to U87-MG cells (cell survival) (U87-MG cells; 72 hours, MTT): markedly more cytotoxic; IC50 (U87-MG cells; [21]): 0.334 µM; IC50 (U87-MG cells; [20]): 0.334 µM; rescue of cytotoxicity by the addition of thymidine (U87-MG cells; 72 hours, MTT): not rescued; cytotoxic effect in combination with Temozolomide (U87-MG cells; 72 hours, MTT, listed as 5-formyl-2′-deoxycytidine): synergistically; cytotoxic effect in combination with Temozolomide (U87-MG cells; 72 hours, MTT, listed as d5fC): more effective
